Measured values: US12319655B2, “RAF kinase inhibitors and methods of use thereof” (Deciphera Pharmaceuticals, LLC, priority 2021, dated 2025)

What was measured:
[1] = tested on: A375 cells; experiment: A375 Cell Proliferation Assay (1); type: cell-based; conditions: Homo sapiens, A-375
Method in brief: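 Resazurin fluorescence (excitation 540 nm, emission 600 nm, after a further 5-6 h) gave IC50s from triplicate compound dilution series.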

[2] = target: C-Raf kinase (SEQ. ID NO: 3) (Homo sapiens (Human), UniProt P04049, Y340D/Y341D); experiment: Biochemical Assay for C-Raf (1); conditions: Table J, assay version (1); read-out: CRAF (1) IC50
Method in brief: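 Coupled pyruvate kinase/LDH assay tracking NADH oxidation at 340 nm, with 0.43 nM C-Raf, 30.1 nM MEK and 1 mM ATP in pH 7.5 Tris buffer (15 mM MgCl2, 1% DMSO final). Read continuously for 6 h at 30 °C, rate taken from the 4–5 h window. IC50 from four-parameter fit of percent inhibition.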

[3] = target: B-Raf (V600E) (SEQ. ID NO: 4) kinase (Homo sapiens (Human), UniProt P15056, V600E); experiment: Biochemical Assay for B-Raf (V600E) (1); conditions: Table J, BRAF V600E, assay version (1); read-out: BRAF VE (1) IC50
Method in brief: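 Coupled pyruvate kinase/lactate dehydrogenase assay: 0.03 nM B-Raf V600E, 30.1 nM MEK, 1 mM ATP, pH 7.5 Tris/MgCl2 buffer, 1% DMSO. NADH oxidation followed at 340 nm for 6 h at 30 °C; rate from 3–4 h converted to percent inhibition, IC50 by four-parameter fit.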

[4] = tested on: WM3928 cells; experiment: WM3928 Cell Proliferation Assay (1); type: cell-based
Protocol: WM3928 Cell Proliferation Assay (1)
WM3928 cells (#WM3928-01-0001) are obtained from Rockland Immunochemicals Inc (Gilbertsville, PA). Briefly, cells were grown in MCDB 153 medium (Sigma, #M7403, St. Louis, MO) supplemented with 20% Leibovitz's L-15 (ThermoFisher #11415-064, Waltham, MA), 2% heat inactivated fetal bovine serum (ThermoFisher, #A3840001, Waltham, MA), 5 μg/mL Insulin (Bovine Pancreas) (Sigma, #I0516, St. Louis, MO), 1.68 mM Calcium Chloride (Sigma, #C-34006, St. Louis, MO) and 1% Penicillin/Streptomycin/L-Glutamine (ThermoFisher #10378016, Waltham, MA) at 37° C., 5% CO2, and 95% humidity. Cells are expanded until reaching 70-95% confluency at which point they are subcultured or harvested for assay use. A serial dilution of test compound is dispensed into a 96-well black clear bottom plate in triplicate. Three thousand cells are added per well in 200 μL complete growth medium in the 96-well plate. Plates are incubated for 67-72 hours at 37° C., 5% CO2, and 95% humidity. At the end of the incubation, 40 μL of a 440 μM solution of resazurin (Sigma, #199303, St. Louis, MO) in PBS is added to each well of the plate and plates are incubated for an additional 6-7 hours at 37° C., 5% CO2, and 95% humidity. Plates are read on a Synergy2 or equivalent reader (Biotek, Winooski VT) using an excitation of 540 nm and an emission of 600 nm. Data is analyzed using Prism software (GraphPad, San Diego, CA) to calculate IC50 values.

Chain of B-Raf (V600E) (SEQ. ID NO: 4) kinase (P15056 416-766 V600E): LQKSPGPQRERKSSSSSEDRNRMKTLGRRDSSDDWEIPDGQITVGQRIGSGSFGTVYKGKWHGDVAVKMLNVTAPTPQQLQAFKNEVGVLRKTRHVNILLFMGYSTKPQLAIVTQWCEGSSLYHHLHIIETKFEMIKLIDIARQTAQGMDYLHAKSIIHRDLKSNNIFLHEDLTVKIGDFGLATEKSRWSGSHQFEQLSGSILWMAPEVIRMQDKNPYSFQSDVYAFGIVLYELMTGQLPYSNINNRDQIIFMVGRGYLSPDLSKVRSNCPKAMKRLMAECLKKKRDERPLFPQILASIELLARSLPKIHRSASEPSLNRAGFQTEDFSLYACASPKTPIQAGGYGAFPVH
Chain of C-Raf kinase (SEQ. ID NO: 3) (P04049 307-648 Y340D/Y341D): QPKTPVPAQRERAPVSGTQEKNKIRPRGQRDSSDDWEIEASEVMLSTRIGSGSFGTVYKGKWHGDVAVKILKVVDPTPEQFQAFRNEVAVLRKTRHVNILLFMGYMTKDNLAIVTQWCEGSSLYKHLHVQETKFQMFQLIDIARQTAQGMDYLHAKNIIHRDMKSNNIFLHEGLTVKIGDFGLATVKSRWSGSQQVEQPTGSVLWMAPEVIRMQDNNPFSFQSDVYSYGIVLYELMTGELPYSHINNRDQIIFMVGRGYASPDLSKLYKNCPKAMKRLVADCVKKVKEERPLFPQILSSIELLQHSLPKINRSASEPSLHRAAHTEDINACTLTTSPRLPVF

SMILES | IC50 [1] | IC50 [2] | IC50 [3] | IC50 [4]
Cc1ncc(NC(=O)c2ccnc(C(C)(C)C#N)c2)cc1-c1cccc(-c2ncnc3c2CC(=O)N3)c1 [Example 110] | 1000 to 10000 nM | 100 to 500 nM | ≤ 100 nM | 500 to 1000 nM
Cc1ncc(NC(=O)c2ccnc(C(C)(C)C#N)c2)cc1-c1cccc(-c2ccnc3[nH]cnc23)c1 [Example 111] | 1000 to 10000 nM | 100 to 500 nM | ≤ 100 nM | 1000 to 10000 nM
Cc1ccc(NC(=O)c2ccnc(C(C)(C)C#N)c2)cc1-c1cncc(-c2ccnc(NC(=O)C3CC3)c2)n1 [Example 112] | ≤ 100 nM | ≤ 100 nM | ≤ 100 nM | ≤ 100 nM
CC(=O)Nc1cc(-c2cc(-c3cc(NC(=O)c4ccnc(C(C)(C)C#N)c4)ccc3C)cn(C)c2=O)ccn1 [Example 113] | 100 to 500 nM | ≤ 100 nM | ≤ 100 nM | 100 to 500 nM
CC(=O)Nc1cc(-c2cccc(-c3cc(NC(=O)c4ccnc(C(F)(F)F)c4)c(F)cc3C)c2)ncn1 [Example 114] | ≤ 100 nM | ≤ 100 nM | ≤ 100 nM | ≤ 100 nM
Cc1ccc(NC(=O)c2ccnc(C(F)F)c2)cc1-c1cncc(-c2ccnc(NC(=O)C3CC3)c2)n1 [Example 117] | 100 to 500 nM | ≤ 100 nM | ≤ 100 nM | ≤ 100 nM
CC(=O)Nc1cc(-c2nccc(-c3cc(NC(=O)c4ccnc(C(C)(C)C#N)c4)ccc3C)n2)ccn1 [Example 118] | ≤ 100 nM | ≤ 100 nM | ≤ 100 nM | ≤ 100 nM
Cc1ccc(NC(=O)c2ccnc(C(F)(F)F)c2)cc1-c1ccnc(-c2ccnc(N)c2)n1 [Example 122] | 1000 to 10000 nM | ≤ 100 nM | ≤ 100 nM | 1000 to 10000 nM
Cc1ccc(NC(=O)c2ccnc(C(F)(F)F)c2)cc1-c1cncc(-c2ccnc(NC=O)c2)n1 [Example 123] | 100 to 500 nM | ≤ 100 nM | ≤ 100 nM | 100 to 500 nM
CC(=O)Nc1cc(-c2cncc(-c3cc(NC(=O)c4cc(C(F)(F)F)ccn4)ccc3C)n2)ccn1 [Example 124] | ≤ 100 nM | ≤ 100 nM | ≤ 100 nM | ≤ 100 nM
CC(=O)Nc1cc(-c2cncc(-c3cc(NC(=O)c4cccc(C(C)(C)C#N)c4)ccc3C)n2)ccn1 [Example 125] | ≤ 100 nM | ≤ 100 nM | ≤ 100 nM | ≤ 100 nM
Cc1ncc(NC(=O)c2ccnc(C(C)(C)C#N)c2)cc1-c1cccc(-c2ncnc3[nH]ncc23)c1 [Example 129] | 500 to 1000 nM | ≤ 100 nM | ≤ 100 nM | 100 to 500 nM
Cc1ncc(NC(=O)c2ccnc(C3CC3)c2)cc1-c1cccc(-c2ncnc3[nH]ncc23)c1 [Example 131] | 1000 to 10000 nM | ≤ 100 nM | ≤ 100 nM | 1000 to 10000 nM
CC(=O)Nc1nccc(-c2cccc(-c3cc(NC(=O)c4ccnc(C(F)(F)F)c4)ccc3C)c2)c1C#N [Example 132] | 500 to 1000 nM | ≤ 100 nM | ≤ 100 nM | 100 to 500 nM
Cc1ccc(NC(=O)c2ccnc(C(C)(C)C#N)c2)cc1-c1cccc(-c2ccnc3[nH]ncc23)c1 [Example 134] | 100 to 500 nM | ≤ 100 nM | ≤ 100 nM | ≤ 100 nM
CC(=O)Nc1cc(-c2cncc(-c3cc(NC(=O)c4ccnc(C(C)(C)C#N)c4)ccc3C)n2)ccn1 [Example 140] | ≤ 100 nM | ≤ 100 nM | ≤ 100 nM | ≤ 100 nM
CC(=O)Nc1cc(-c2cncc(-c3cc(NC(=O)c4ccnc(C5CC5)c4)ccc3C)n2)ccn1 [Example 145] | ≤ 100 nM | ≤ 100 nM | ≤ 100 nM | ≤ 100 nM

SMILES | IC50 [1] | IC50 [2] | IC50 [3] | IC50 [4]
CC(=O)Nc1cc(-c2cncc(-c3cc(NC(=O)c4ccnc(C5(C#N)CC5)c4)ccc3C)n2)ccn1 [Example 146] | ≤ 100 nM | ≤ 100 nM | ≤ 100 nM | ≤ 100 nM
Cc1ccc(NC(=O)c2ccnc(C(C)(C)C#N)c2)cc1-c1cncc(-c2ccnc(C(=O)NC3CC3)c2)n1 [Example 148] | 1000 to 10000 nM | 100 to 500 nM | ≤ 100 nM | 500 to 1000 nM
CC(=O)Nc1cc(-c2nccc(-c3cc(NC(=O)c4cccc(C(C)(C)C#N)c4)ccc3C)n2)ccn1 [Example 150] | ≤ 100 nM | ≤ 100 nM | ≤ 100 nM | ≤ 100 nM
CC(=O)Nc1cc(-c2nccc(-c3cc(NC(=O)c4ccnc(C5(C#N)CC5)c4)ccc3C)n2)ccn1 [Example 151] | ≤ 100 nM | ≤ 100 nM | ≤ 100 nM | ≤ 100 nM
CC(=O)Nc1cc(-c2nccc(-c3cc(NC(=O)c4ccnc(C5CC5)c4)ccc3C)n2)ccn1 [Example 152] | 100 to 500 nM | ≤ 100 nM | ≤ 100 nM | ≤ 100 nM
Cc1ccc(NC(=O)c2ccnc(C(C)(C)C#N)c2)cc1-c1cncc(-c2ccnc(NC(=O)CC#N)c2)n1 [Example 154] | ≤ 100 nM | ≤ 100 nM | ≤ 100 nM | ≤ 100 nM
COCCNc1cc(-c2cccc(-c3cc(NC(=O)c4ccnc(C(F)(F)F)c4)ccc3C)c2)ncn1 [Example 156] | 1000 to 10000 nM | ≤ 100 nM | ≤ 100 nM | 500 to 1000 nM
CC(=O)Nc1cc(-c2nccc(-c3cc(NC(=O)c4ccnc(C(F)(F)F)c4)cnc3C)n2)ccn1 [Example 157] | 1000 to 10000 nM | ≤ 100 nM | ≤ 100 nM | 100 to 500 nM
CNC(=O)c1cc(-c2cc(-c3cc(NC(=O)c4ccnc(C(C)(C)C#N)c4)cnc3C)ccn2)ccn1 [Example 158] | ≤ 100 nM | 100 to 500 nM | ≤ 100 nM | 100 to 500 nM
CNc1cc(-c2cccc(-c3cc(NC(=O)c4ccnc(C(C)(C)C#N)c4)ccc3C)c2)ncn1 [Example 160] | 100 to 500 nM | ≤ 100 nM | ≤ 100 nM | ≤ 100 nM
Cc1ccc(NC(=O)c2ccnc(C(C)(C)C#N)c2)cc1-c1cncc(-c2ccnc(NC=O)c2)n1 [Example 161] | ≤ 100 nM | ≤ 100 nM | ≤ 100 nM | ≤ 100 nM
Cc1ccc(NC(=O)c2ccnc(C(C)(C)C#N)c2)cc1-c1ccnc(-c2ccnc(C(=O)NC3CC3)c2)c1 [Example 162] | 100 to 500 nM | 100 to 500 nM | ≤ 100 nM | 100 to 500 nM
CNC(=O)c1cc(-c2cc(-c3cc(NC(=O)c4ccnc(C(C)(C)C#N)c4)ccc3C)cc(C3CC3)n2)ccn1 [Example 163] | ≤ 100 nM | 100 to 500 nM | ≤ 100 nM | ≤ 100 nM
CC(=O)Nc1cc(-c2nccc(-c3cc(NC(=O)c4cnnc(C5CC5)c4)ccc3C)n2)ccn1 [Example 168] | 500 to 1000 nM | ≤ 100 nM | ≤ 100 nM | 500 to 1000 nM
Cc1ccc(NC(=O)c2ccnc(C(C)(C)C#N)c2)cc1-c1nccc(-c2ccnc(NC(=O)C3CC3)c2)n1 [Example 169] | ≤ 100 nM | ≤ 100 nM | ≤ 100 nM | ≤ 100 nM
CNC(=O)c1cc(-c2cccc(-c3cc(NC(=O)c4ccnc(C(C)(C)C#N)c4)ccc3C)c2)ncn1 [Example 171] | ≤ 100 nM | ≤ 100 nM | ≤ 100 nM | ≤ 100 nM
Cc1ncc(NC(=O)c2ccnc(C(C)(C)C#N)c2)cc1-c1cccc(-c2ccnc(NC(=O)C3CC3)c2)n1 [Example 172] | ≤ 100 nM | ≤ 100 nM | ≤ 100 nM | ≤ 100 nM
